Among the data in patent US20240190841A1, “MODULATORS OF BCL6 PROTEOLYSIS AND ASSOCIATED METHODS OF USE” (Arvinas Operations, Inc., priority 2022, published 2024) are DC50 and Dmax values, retold here.

A value given as a limit tells only on which side of the number the result lay.

By DC50 is commonly meant the concentration at which degradation of the target reaches its halfway point. A lower DC50 goes with a more potent degrader. As usually defined, the Dmax is the largest share of the target that was removed. A lower Dmax goes with shallow degradation.

The target in this assay is T1, BCL6 (Homo sapiens, UniProt P41182).
T1 construct: endogenous in cells; host or cells: T47D breast cancer epithelial cells
The assay is described as follows: Immunofluorescence high content imaging of BCL6 degradation in T47D cells. Type of assay: cell-based. The note with it: T47D breast cancer epithelial cells, 3 days incubation. The procedure: Immunofluorescence Protocol for High Content Imaging of BCL6
T47D cells were seeded in 100 μl volume of RPMI11640-10% FBS in a 96-well black/clear bottom plates for adherent lines (Corning #3904).
Day 1. T47D breast cancer epithelial cells were seeded at a density so that confluence is ˜70-90% at endpoint. Cells were seeded at 7K/0.1 mL/well the morning prior to the addition of exemplary bifunctional degradation compounds.
Day 2. Prepare an 11 point 3-fold serial dilution of exemplary bifunctional compound in DMSO and aliquot an appropriate volume to cell growth media to generate a 2× final concentration of exemplary bifunctional compound. Add an equal volume (0.1 ml) of 2× exemplary bifunctional compound/media mix to previously plated cells, for a final top concentration in aqueous cell growth media of 0.1 or 1 μM. Incubate for 3 days at 37° C., 5% CO2.
Day 5 Immunofluorescence. Discard cell media. Wash wells with 200 μl of room temperature phosphate-buffered saline (PBS). Prepared 4% paraformaldehyde (PFA) from 16% PFA (Electron Microscopy Sciences #15710) using 1×PBS. Fifty μL of 4% PF was added to each well and incubate for 15 minutes at room temperature to fix the cells. The PFA was aspirated and the cells washed twice with PBS (200 μL)).
Prepared 0.1% Triton X-100 in PBS using 10% triton X-100 stock. The cells were permeabilized by adding 100 μL of the 0.1% Triton X-100 in PBS to each well to permeabilize cells and incubating at room temperature for 15 minutes. Cells were washed twice with PBS.
Prepared 3% BSA/PBS (from Thermofisher #37515 Blocker BSA in TBS, 10%), and 100 μL was added to each well. The cells were incubated for at least 1 hour at room temperature.
Prepared 1% BSA/PBS using Blocker BSA/PBS, and the 3% BSA/PBS removed from the wells.
For no primary antibody controls, 50 μL 1% BSA/PBS was added.
Primary antibody (BCL6 Rb Ab, CST-14895, Cell Signaling) was diluted 1:300 in 1% BSA/PBS using Blocker BSA/PBS.
Fifty μl of primary antibody added to all remaining wells (i.e., all wells other than the primary antibody controls) and the cells were incubated overnight at 4° C. with slow orbital movement.
Day 6. Contents of the wells was removed and the cells washed four times with 200 μL PBS. 1% BSA/PBS was prepared using Blocker BSA in PBS.
Diluted secondary antibody goat anti-Rb IgG Alexa-488 1:1000, and cell mask-Alexa-647 1:3000 in 1% BSA/PBS in the same mix. Add 50 μL to each well and incubate at room temperature for 1 hour in the dark.
Cells were washed three times with 200 μL PBS, and then incubated for 10 minutes with 100 μL Hoechst dye at 1 μg/mL (20 mM stock) to stain cell nuclei. Wells were then washed with 200 μl PBS, and 100 μL of PBS was added to each well and the plate covered plate with a plastic opaque cover. Plates were stored at […] and covered in aluminum foil until imaged.
Plates were equilibrated to room temperature prior to reading. The bottom of the plate was wiped with 70% isopropanol immediately prior to imaging.
Imaging: • 10×, 4 fields/well, include Top hat smoothing in the analysis protocol.
Supplies/Reagents: • 16% paraformaldehyde: Electron Microscopy Sciences #15710 • Hoechst: Thermofisher #62249 • Blocker BSA in PBS, 10%: Thermofisher #37515 • Blocker BSA in TBS, 10%: Thermofisher #37520 • Goat anti-rabbit or mouse AlexaFluor-488: Thermofisher #A11008 • Cell mask deep red AlexaFluor-647: Thermofisher #C10046 • Wash buffer, PBS: 20×PBS, Thermofisher
With `CNC(=O)COc1cc2cc(Nc3nc(N4CCC(O)(CC(=O)N5CCN(c6ccc7c(c6F)CN(C6CCC(=O)NC6=O)C7=O)CC5)CC4)ncc3Cl)ccc2n(C(C)C)c1=O` (stereo not drawn) [Compound 41, 2-{[6-({5-chloro-2-[4-(2-{4-[2-(2,6-dioxopiperidin-3-yl)-4-fluoro-1-oxo-2,3-dihydro-1H-isoindol-5-yl]piperazin-1-yl}-2-oxoethyl)-4-hydroxypiperidin-1-yl]pyrimidin-4-yl}amino)-2-oxo-1-(propan-2-yl)-1,2-dihydroquinolin-3-yl]oxy}-N-methylacetamide], the DC50 is less than 10 nM and the greatest degradation seen (Dmax) was no less than 70%.

In turn, `CNC(=O)COc1cc2cc(Nc3nc(N4CCC(O[C@H]5C[C@H](N6CCN(c7ccc8c(cnn8C8CCC(=O)NC8=O)c7)CC6)C5)CC4)ncc3Cl)ccc2n(C(C)C)c1=O` (stereo partly drawn) [Compound 21, 2-({6-[(5-chloro-2-{4-[(1r,3r)-3-{4-[1-(2,6-dioxopiperidin-3-yl)-1H-indazol-5-yl]piperazin-1-yl}cyclobutoxy]piperidin-1-yl}pyrimidin-4-yl)amino]-2-oxo-1-(propan-2-yl)-1,2-dihydroquinolin-3-yl}oxy)-N-methylacetamide] had a DC50 of less than 10 nM and a Dmax of no less than 70%.

`CNC(=O)COc1cc2cc(Nc3nc(N4CCC(O[C@H]5C[C@H](N6CCN(c7ccc8c(c7)ncn8C7CCC(=O)NC7=O)CC6)C5)CC4)ncc3Cl)ccc2n(C(C)C)c1=O` (stereo partly drawn) [Compound 23] yielded a DC50 of less than 10 nM and a Dmax of 50 to 70%.

The molecule `CNC(=O)COc1cc2cc(Nc3nc(N4CCC(CN5CCC(N6CCC(c7ccc8c(c7F)CN(C7CCC(=O)NC7=O)C8=O)CC6)C(F)(F)C5)CC4)ncc3Cl)ccc2n(C(C)C)c1=O` (stereo not drawn) [Compound 43, 2-{[6-({5-chloro-2-[4-({4-[2-(2,6-dioxopiperidin-3-yl)-4-fluoro-1-oxo-2,3-dihydro-1H-isoindol-5-yl]-3′,3′-difluoro-[1,4′-bipiperidin]-1′-yl}methyl)piperidin-1-yl]pyrimidin-4-yl}amino)-2-oxo-1-(propan-2-yl)-1,2-dihydroquinolin-3-yl]oxy}-N-methylacetamide] showed a DC50 of less than 10 nM and a Dmax of 50 to 70%.

Molecule `CNC(=O)COc1cc2cc(Nc3nc(N4CCC(O[C@H]5C[C@H](N6CCN(c7ccc8c(c7)n(C7CCC(=O)NC7=O)c(=O)n8C)CC6)C5)CC4)ncc3Cl)ccc2n(C(C)C)c1=O` (stereo partly drawn) [Compound 11, 2-({6-[(5-chloro-2-{4-[(1r,3r)-3-{4-[3-(2,6-dioxopiperidin-3-yl)-1-methyl-2-oxo-2,3-dihydro-1H-1,3-benzodiazol-5-yl]piperazin-1-yl}cyclobutoxy]piperidin-1-yl}pyrimidin-4-yl)amino]-2-oxo-1-(propan-2-yl)-1,2-dihydroquinolin-3-yl}oxy)-N-methylacetamide] showed a DC50 of 10 to 50 nM and a Dmax of less than 50%.

`CNC(=O)COc1cc2cc(Nc3nc(N4CCC(O[C@H]5C[C@H](N6CCN(c7ccc8c(n7)n(C)c(=O)n8C7CCC(=O)NC7=O)CC6)C5)CC4)ncc3Cl)ccc2n(C(C)C)c1=O` (stereo partly drawn) [Compound 6, 2-({6-[(5-chloro-2-{4-[(1r,3r)-3-{4-[1-(2,6-dioxopiperidin-3-yl)-3-methyl-2-oxo-1H,2H,3H-imidazo[4,5-b]pyridin-5-yl]piperazin-1-yl}cyclobutoxy]piperidin-1-yl}pyrimidin-4-yl)amino]-2-oxo-1-(propan-2-yl)-1,2-dihydroquinolin-3-yl}oxy)-N-methylacetamide] returned a DC50 of less than 10 nM and a Dmax of no less than 70%.

Consider `CNC(=O)COc1cc2cc(Nc3nc(N4CCC(O[C@H]5C[C@H](N6CCN(c7cc8c(cc7F)n(C7CCC(=O)NC7=O)c(=O)n8C)CC6)C5)CC4)ncc3Cl)ccc2n(C(C)C)c1=O` (stereo partly drawn) [Compound 9, 2-({6-[(5-chloro-2-{4-[(1r,3r)-3-{4-[1-(2,6-dioxopiperidin-3-yl)-6-fluoro-3-methyl-2-oxo-2,3-dihydro-1H-1,3-benzodiazol-5-yl]piperazin-1-yl}cyclobutoxy]piperidin-1-yl}pyrimidin-4-yl)amino]-2-oxo-1-(propan-2-yl)-1,2-dihydroquinolin-3-yl}oxy)-N-methylacetamide], for which the DC50 was less than 10 nM and the Dmax was no less than 70%.

Take `CNC(=O)COc1cc2cc(Nc3nc(N4CCC(O[C@H]5C[C@H](N6CCN(c7ccc8c(c7F)n(C)c(=O)n8C7CCC(=O)NC7=O)CC6)C5)CC4)ncc3Cl)ccc2n(C(C)C)c1=O` (stereo partly drawn) [Compound 8, 2-({6-[(5-chloro-2-{4-[(1r,3r)-3-{4-[1-(2,6-dioxopiperidin-3-yl)-4-fluoro-3-methyl-2-oxo-2,3-dihydro-1H-1,3-benzodiazol-5-yl]piperazin-1-yl}cyclobutoxy]piperidin-1-yl}pyrimidin-4-yl)amino]-2-oxo-1-(propan-2-yl)-1,2-dihydroquinolin-3-yl}oxy)-N-methylacetamide]: the DC50 was less than 10 nM and the Dmax was no less than 70%.

The molecule `CNC(=O)COc1cc2cc(Nc3nc(N4CCC(O[C@H]5C[C@H](N6CCN(c7ccc8c(c7)n(C)c(=O)n8C7CCC(=O)NC7=O)[C@H](C)C6)C5)CC4)ncc3Cl)ccc2n(C(C)C)c1=O` (stereo partly drawn) [Compound 13, 2-({6-[(5-chloro-2-{4-[(1r,3r)-3-[(3R)-4-[1-(2,6-dioxopiperidin-3-yl)-3-methyl-2-oxo-2,3-dihydro-1H-1,3-benzodiazol-5-yl]-3-methylpiperazin-1-yl]cyclobutoxy]piperidin-1-yl}pyrimidin-4-yl)amino]-2-oxo-1-(propan-2-yl)-1,2-dihydroquinolin-3-yl}oxy)-N-methylacetamide] displayed a DC50 of less than 10 nM and a Dmax of no less than 70%.

On to `CNC(=O)COc1cc2cc(Nc3nc(N4CCC(O[C@H]5C[C@H](N6CCN(c7cc(C)c8c(c7)CN(C7CCC(=O)NC7=O)C8=O)CC6)C5)CC4)ncc3Cl)ccc2n(C(C)C)c1=O` (stereo partly drawn) [Compound 36, 2-({6-[(5-chloro-2-{4-[(1r,3r)-3-{4-[2-(2,6-dioxopiperidin-3-yl)-7-methyl-1-oxo-3H-isoindol-5-yl]piperazin-1-yl}cyclobutoxy]piperidin-1-yl}pyrimidin-4-yl)amino]-1-isopropyl-2-oxoquinolin-3-yl}oxy)-N-methylacetamide], for which the DC50 was less than 10 nM and the Dmax lay in the range of 50 to 70%.

In the case of `CNC(=O)COc1cc2cc(Nc3nc(N4CCC(O[C@H]5C[C@H](N6CCN(c7ccc8c(c7C)n(C)c(=O)n8C7CCC(=O)NC7=O)CC6)C5)CC4)ncc3Cl)ccc2n(C(C)C)c1=O` (stereo partly drawn) [Compound 19, 2-({6-[(5-chloro-2-{4-[(1r,3r)-3-{4-[1-(2,6-dioxopiperidin-3-yl)-3,4-dimethyl-2-oxo-2,3-dihydro-1H-1,3-benzodiazol-5-yl]piperazin-1-yl}cyclobutoxy]piperidin-1-yl}pyrimidin-4-yl)amino]-2-oxo-1-(propan-2-yl)-1,2-dihydroquinolin-3-yl}oxy)-N-methylacetamide], the DC50 is less than 10 nM and the Dmax is no less than 70%.

Take `CNC(=O)COc1cc2cc(Nc3nc(N4CCC(O[C@H]5C[C@H](N6CCN(c7cc(F)c8c(c7F)n(C)c(=O)n8C7CCC(=O)NC7=O)CC6)C5)CC4)ncc3Cl)ccc2n(C(C)C)c1=O` (stereo partly drawn) [Compound 27, 2-({6-[(5-chloro-2-{4-[(1r,3r)-3-{4-[1-(2,6-dioxopiperidin-3-yl)-4,7-difluoro-3-methyl-2-oxo-2,3-dihydro-1H-1,3-benzodiazol-5-yl]piperazin-1-yl}cyclobutoxy]piperidin-1-yl}pyrimidin-4-yl)amino]-2-oxo-1-(propan-2-yl)-1,2-dihydroquinolin-3-yl}oxy)-N-methylacetamide]: the DC50 was less than 10 nM and the Dmax was no less than 70%.
